According to patent US8278265B2, “Methods, kits and compositions comprising crotamine” (Fundacao de Amparo a Pesquisa do Estado de Sao Paulo—FAPESP, priority 2005, dated 2012):

How the values were obtained:
[1] = tested on: linear and/or circular double strand DNA; assay: DNA-peptide interaction by agarose gel electrophoresis (gel shift assay); assay type: binding; conditions: various molar proportions, FIG. 6
Method: The interaction between crotamine and DNA was analysed by an interference assay for DNA migration in agarose gel. 1 μg DNA and an increasing concentration of crotamine was added in a total volume of 25 μl, containing 150 mM NaCl. Twenty minutes after the mixture was prepared, samples were analysed by agarose gel electrophoresis (1%), using Tris-borate-EDTA buffer, followed by visualization by staining the nucleic acid with the ethidium bromide.
The formation of the complex between the peptide and DNA was analysed by the electrophoretic mobility of the complex in agarose gel (1%, w/v) by varying the molar proportions between the peptide and the double-strand DNA. Tests were made by mixing plasmid DNA (2 or 4 μg) with 10 μg of pure crotamine, in the presence or absence of 150 mM NaCl, which were applied on agarose gel immersed in Tris borate-EDTA buffer. DNA was then observed after staining with ethidium bromide and using UV light transiluminator. Gel documentation after electrophoresis was made by using an image digitizer (model FLA3000). This system of electrophoresis allows to observe changes in the migration pattern (migration delay) due to the neutralization of nucleic acid by cationic peptide present and/or due to the formation of larger complexes between crotamine and DNA (FIG. 6). […]

[2] = tested on: plasmid DNA; assay: Peptide-DNA interaction by circular dichroism; assay type: binding; conditions: molar ratio 200:1 and 1:1 (crotamine:DNA), absence and presence of 150 mM NaCl
Method: Circular dichroism spectra were taken in a spectropolarymeter JASCO 810 with a Peltier system for temperature control. The device is regularly calibrated with recrystallized d-10 camphorsulfonic acid. Standards used for the equipment were: wavelength range 190-260 nm; sensitivity 100 mdeg; resolution 0.5 nm; response 8 s; reading speed 50 nm/min; 8 accumulations; temperature 37° C. Samples were analysed in a 1 mm optical path cell in 10 mM sodium phosphate buffer, pH 7.4, in the presence or absence of 150 mM NaCl. The crotamine concentration used was 20 μM and plasmid DNA concentration was 0.1 μM. […]

[3] = tested on: actively proliferating cells; assay: Marker for actively proliferating cells (BrDU co-labeling); assay type: cell-based, mice; conditions: FIG. 8E-H
Excerpt: The hanging drop method was used, with some amendments, to induce the differentiation of ES cells from USP-1 line (Wobus, A. M., Wallukat, G., Hescheler, J. (1991), Pluripotent Mouse Embryonic Cells are Able to Differentiate into Cardiomyocytes Expressing Chronotropic Responses to Adrenergic and Cholinergic Agents and Ca^2+ Channel Blockers, Differentiation 48, 173-182). Briefly, ES cell suspensions without fibroblasts were obtained, collected with 0.25% trypsin/EDTA (Gibco, U.S.A.). Said suspension was diluted up to 3.5×10^4 cells/ml and dropped by using a micropipette (25 μl per drop) on the Petri dish cap (10 cm). Drops adhered to the surface were turned upside down over the plate already containing 5 ml PBS. After three days in a CO2 oven, in the hanging drop culture in appropriate culture medium for ES, with no LIF, aggregates are formed, known as embryonic bodies (EBs). EBs were later transferred to another plate (35 mm) with a 1% agarose layer, and maintained in the CO2 oven at 37° C. On the fifth day, EBs were transferred to microscope slides, on another Petri dish, where they adhered and started differentiating into a monolayer.
Embryonic bodies, obtained according to the protocol as described above, after three days, adhered to small glass slides. […] Microscope slides were assembled in a PBS/glycerol solution (1:1) and analysed in a confocal microscope. […]

[4] = tested on: Murine pluripotent embryonic stem cells; assay: In vitro incorporation of Cy3-crotamine in pluripotent embryonic stem cells; assay type: cell-based; conditions: FIG. 2D and E
Method: Embrionary stem cells (ES) from mice, line USP-1 (Soukoyan, M. A., Kerkis, A. Y., Mello, M. R. B., Kerkis, I. E., Visintin, J. A., Pereira, L. V. (2002), Establishment of New Murine Embryonic Stem Cell Lines for the Generation of Mouse Models of Human Genetic Diseases, Braz. J. Med. Biol. Res. 35, 535-542) in the passage 8-10 were cultured on a layer of γ-irradiated embrionary fibroblasts of mice, kept in DMEM (Gibco, U.S.A.), supplemented with 15% FCS (Gibco, U.S.A.), 1 mM sodium piruvate, 1% non-essential amino acids, 0.1 mM β-mercaptoethanol and 1×103 U/ml murine Leukemia Inhibitor Factor (LIF) (ESGRO-LIF, Gibco). Human lymphoblastoids and primary fibroblasts were cultivated in DMEM and in RPMI, respectively, supplemented with 10% FCS with no antibiotics. Cultures were kept under humid atmosphere at 37° C. and 5% CO2.
In vitro assay: Semiconffluent cultures of pluripotent and differentiation ES cells (homogeneous cell population), as well as other cell cultures of normal and tumor origin, were kept in small laminar slides placed in 24-well plates containing appropriate culture medium. Cells were incubated for 2-3 minutes to 72 hours in the presence of Cy3-crotamine, under concentrations between 10 μM and 0.01 μM, or as control, just in the presence of the dye agent Cy3 diluted in 1 ml PBS (control). […]

YKQCHKKGGHCFPKEKICLPPSSDFGKMDCRWRWK CCKKGSG (YKQCHKKGGHCFPKEKICLPPSSDFGKMDCRWRWKCCKKGSG; UniProt Q9PWF3 23-64, looked up) [crotamine]
effect of complex formation on electrophoretic mobility in agarose gel [1]: interfere in the electrophoretic mobility
interaction with plasmid DNA by circular dichroism spectra [2]: presence of interaction
co-location with BrDU staining in actively proliferating ES cells [3]: co-location
signal on cell islets of pluripotent embryonic stem cells [4]: strong signal
